Data set [1] has as its target T1, PSMA (Homo sapiens, UniProt Q04609).
T1 construct: host or cells: LNCaP prostate cancer cells
Kind of data set: In vitro competition binding assay, LNCaP cells, [^18F]DCFPyL as radioligand. As for the experimental part:
The LNCaP cells obtained from ATCC (via Cedarlane, Burlington, Canada) were cultured in RPMI 1640 medium supplemented with 10% FBS, penicillin (100 U/mL) and streptomycin (100 μg/mL) at 37 °C in a Panasonic Healthcare (Tokyo, Japan) MCO-19AIC humidified incubator containing 5% CO2. The cells were confirmed pathogen free by the IMPACT Rodent Pathogen Test (IDEXX BioAnalytics). Cells grown to 80-90% confluence were then washed with sterile PBS and collected after trypsinization. The cell concentration was counted in triplicate using a hemocytometer and a manual laboratory counter.
In vitro competition binding assays were conducted as previously reported using LNCaP prostate cancer cells and [^18F]DCFPyL as the radioligand [10]-[12],[14]. Briefly, LNCaP cells (400,000/well) were plated onto a 24-well poly-D-lysine coated plate for 48 h. Growth media was removed and replaced with HEPES buffered saline (50 mM HEPES, pH 7.5, 0.9% sodium chloride) and the cells were incubated for 1 h at 37 °C. [^18F]DCFPyL (0.1 nM) was added to each well (in triplicate) containing various concentrations (0.5 mM - 0.05 nM) of tested ligands. Non-specific binding was determined in the presence of 10 µM non-radiolabeled DCFPyL. The assay mixtures were further incubated for 1 h at 37 °C with gentle agitation. Then, the buffer and hot ligand were removed, and cells were washed twice with cold HEPES buffered saline. To harvest the cells, 400 µL of 0.25% trypsin solution was added to each well. Radioactivity was measured on an automatic gamma counter. Nonlinear regression analyses and Ki calculations were performed using the GraphPad Prism 7 software.

For data set [2], the system named is LNCaP tumor-bearing mice. Briefly: Ex vivo biodistribution in LNCaP tumor-bearing mice. Also on record: species or system mouse. The settings on record: 1 h post-injection; for Reduction of average kidney uptake by co-injection of DCFPyL: DCFPyL 0.5 mg. The procedure, abridged: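 Male NSG or NRG mice bearing subcutaneous LNCaP tumours (5-8 mm) were injected with 2-4 MBq radioligand, with 0.5 mg nonradioactive DCFPyL co-injected for blocking. At set time points, blood and organs were collected, weighed and gamma-counted.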

Data set [3] deals with LNCaP tumor-bearing mice. Briefly: PET/CT imaging in LNCaP tumor-bearing mice. The note with it: 1 h post-injection. The class given is in vivo, mouse. The method, then: Imaging, biodistribution and radioligand therapy experiments were performed following previously published procedures using male NOD-scid IL2Rg^null (NSG) or NOD.Cg-Rag1^tm1MomIl2rg^tm1Wjl/SzJ (NRG) mice [10]-[12],[14]-[15]. The experiments were conducted according to the guidelines established by the Canadian Council on Animal Care and approved by Animal Ethics Committee of the University of British Columbia. The mice were briefly sedated by inhalation of 2% isoflurane in oxygen, and implanted subcutaneously with 1×10^7 LNCaP cells behind the left shoulder. The mice were imaged or used in biodistribution studies when the tumor grew to 5-8 mm in diameter over a period of 4-5 weeks.
PET/CT imaging experiments were conducted using a Siemens (Knoxville, TN, USA) Inveon micro PET/CT scanner. Each tumor-bearing mouse was injected with ~6-8 MBq of ^68Ga-labeled tracer through a lateral caudal tail vein. After 50 min post-injection, a 10-min CT scan was conducted first for localization and attenuation correction after segmentation for reconstructing the PET images, followed by a 10-min static PET imaging acquisition.

The mark [4] stands for this setting: blocked, co-injected with DCFPyL (0.5 mg).

Results on seven compounds are retold here after paper PMC10465233, “Lys-urea-Aad, Lys-urea-Cmc and Lys-urea-Cms as potential pharmacophores for the design of PSMA-targeted radioligands to reduce off-target uptake in kidneys and salivary glands” (Theranostics, 2023).

By Ki is commonly meant the equilibrium dissociation constant of an inhibitor or competing ligand from its target.

Values joined by “and” are separate entries in the source; they are usually repeats but may differ in a detail not shown here. Equal entries are not always repeated.

T1 sequence (Q04609 whole entry): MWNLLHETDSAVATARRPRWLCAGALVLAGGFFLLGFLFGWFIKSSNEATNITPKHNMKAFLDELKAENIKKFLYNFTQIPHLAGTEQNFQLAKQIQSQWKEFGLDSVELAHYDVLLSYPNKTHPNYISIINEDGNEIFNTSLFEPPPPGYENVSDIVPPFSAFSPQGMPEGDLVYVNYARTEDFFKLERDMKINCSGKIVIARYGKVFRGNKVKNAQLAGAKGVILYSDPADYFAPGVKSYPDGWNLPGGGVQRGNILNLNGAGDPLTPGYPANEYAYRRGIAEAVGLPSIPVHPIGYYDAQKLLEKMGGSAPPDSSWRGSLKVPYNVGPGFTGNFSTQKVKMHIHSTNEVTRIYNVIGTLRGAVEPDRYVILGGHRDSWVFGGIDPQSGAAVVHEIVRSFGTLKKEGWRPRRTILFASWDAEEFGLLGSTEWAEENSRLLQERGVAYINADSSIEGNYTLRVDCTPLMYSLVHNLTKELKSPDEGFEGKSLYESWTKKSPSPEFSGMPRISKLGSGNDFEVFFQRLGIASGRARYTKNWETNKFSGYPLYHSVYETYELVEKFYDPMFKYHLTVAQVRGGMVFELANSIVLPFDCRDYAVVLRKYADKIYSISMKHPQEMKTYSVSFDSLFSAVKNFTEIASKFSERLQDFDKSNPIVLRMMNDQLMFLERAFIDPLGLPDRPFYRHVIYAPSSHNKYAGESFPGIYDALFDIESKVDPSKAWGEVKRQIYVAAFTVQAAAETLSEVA

In data set [1], `COc1ccc(CCCC(=O)NCC(=O)N[C@@H](CCCCNC(=O)CN2CCN(CC(=O)[O-])CCN(CC(=O)[O-])CCN(CC(=O)[O-])CC2)C(=O)NC[C@H]2CC[C@H](C(=O)N[C@@H](Cc3c4ccccc4cc4ccccc34)C(=O)NCCCC[C@H](NC(=O)N[C@@H](CSCC(=O)O)C(=O)O)C(=O)O)CC2)cc1.[Lu+3]` [Lu-HTK04048] gave a Ki of 1.4 ± 1 nM.
`COc1ccc(CCCC(=O)NCC(=O)N[C@@H](CCCCNC(=O)CN2CCN(CC(=O)[O-])CCN(CC(=O)[O-])CCN(CC(=O)[O-])CC2)C(=O)NC[C@H]2CC[C@H](C(=O)N[C@@H](Cc3c4ccccc4cc4ccccc34)C(=O)NCCCC[C@H](NC(=O)N[C@@H](COCC(=O)O)C(=O)O)C(=O)O)CC2)cc1.[Lu+3]` [Lu-HTK04028] displayed a Ki in data set [1] of 13.9 ± 3.2 nM.
The same measure, in the same setting: the same measure for `O=C([O-])CN1CCN(CC(=O)[O-])CCN(CC(=O)NCC2CCC(C(=O)NC(Cc3c4ccccc4cc4ccccc34)C(=O)NCCCCC(NC(=O)NC(COCC(=O)O)C(=O)O)C(=O)O)CC2)CCN(CC(=O)[O-])CC1.[Ga+3]` (stereo not drawn) [Ga-HTK03187]: 10.6 ± 2 nM; for `COc1ccc(CCCC(=O)NCC(=O)N[C@@H](CCCCNC(=O)CN2CCN(CC(=O)[O-])CCN(CC(=O)[O-])CCN(CC(=O)[O-])CC2)C(=O)NC[C@H]2CC[C@H](C(=O)N[C@@H](Cc3c4ccccc4cc4ccccc34)C(=O)NCCCC[C@H](NC(=O)N[C@@H](CCCC(=O)O)C(=O)O)C(=O)O)CC2)cc1.[Lu+3]` [Lu-HTK03170]: 1.6 ± 0.4 nM.
Consider `O=C([O-])CN1CCN(CC(=O)[O-])CCN(CC(=O)NCC2CCC(C(=O)NC(Cc3c4ccccc4cc4ccccc34)C(=O)NCCCCC(NC(=O)NC(CSCC(=O)O)C(=O)O)C(=O)O)CC2)CCN(CC(=O)[O-])CC1.[68Ga+3]` (stereo not drawn) [[^68Ga]Ga-HTK03177], for which, in data set [2], the Adrenal glands uptake is listed as 0.46 ± 0.17 %ID/g, the Blood uptake was found to be 0.70 ± 0.06 %ID/g, the “Blood:Salivary gland uptake ratio” value is reported as 3.14 ± 0.19 and the Bone uptake is 0.10 ± 0.03 %ID/g. Further, in data set [2], the Brain uptake stood at 0.02 ± 0.00 %ID/g, the Fat uptake came to 0.09 ± 0.04 %ID/g, the Heart uptake turned out to be 0.21 ± 0.01 %ID/g and the Intestines uptake is recorded as 0.21 ± 0.02 %ID/g. Besides, in data set [2], the Kidneys uptake is 7.76±1.00 %ID/g and < 8.0 %ID/g; the Lacrimal glands uptake is reported as 0.12 ± 0.06 %ID/g; the Liver uptake is listed as 0.33 ± 0.20 %ID/g; the Lungs uptake stood at 0.61 ± 0.08 %ID/g. In addition, in data set [2], the Muscle uptake worked out at 0.10 ± 0.01 %ID/g; the Pancreas uptake came out at 0.14 ± 0.01 %ID/g; the Salivary glands uptake was 0.22±0.02 %ID/g and < 0.25 %ID/g; the Spleen uptake amounted to 0.42 ± 0.15 %ID/g. Besides, in data set [2], the Stomach uptake was determined as 0.15 ± 0.09 %ID/g; the Testes uptake was determined as 0.25 ± 0.07 %ID/g; the Thyroid uptake was 0.23 ± 0.01 %ID/g; the Tumor uptake is 24.7±6.85 %ID/g and 21-25 %ID/g. Further, in data set [2], the “Tumor:Blood uptake ratio” value was determined as 36.1±12.5, the “Tumor:Kidney uptake ratio” value came to 3.25±1.16, the “Tumor:Muscle uptake ratio” value was 265±103 and the “Tumor:Salivary gland uptake ratio” value came to 112±33.1. Moreover, the “Reduction of average kidney uptake by co-injection of DCFPyL” value in data set [2] came out at 78%. In data set [2] (setting [4]), the Adrenal glands uptake came to 0.61 ± 0.38 %ID/g, the Blood uptake is reported as 0.85 ± 0.15 %ID/g, the “Blood:Salivary gland uptake ratio” value was found to be 6.07 ± 2.53 and the Bone uptake came to 0.24 ± 0.17 %ID/g. In data set [2] (setting [4]), this compound registered a Brain uptake of 0.02 ± 0.00 %ID/g, a Fat uptake of 0.20 ± 0.16 %ID/g, a Heart uptake of 0.23 ± 0.04 %ID/g and an Intestines uptake of 0.69 ± 0.76 %ID/g. Also, in data set [2] (setting [4]), the Kidneys uptake is 1.73 ± 0.36 %ID/g, the Lacrimal glands uptake came to 0.15 ± 0.10 %ID/g, the Liver uptake was 0.37 ± 0.22 %ID/g and the Lungs uptake was 0.54 ± 0.06 %ID/g. In data set [2] (setting [4]), the Muscle uptake amounted to 0.13 ± 0.05 %ID/g, the Pancreas uptake was 0.54 ± 0.54 %ID/g, the Salivary glands uptake turned out to be 0.15 ± 0.04 %ID/g and the Spleen uptake was 0.25 ± 0.18 %ID/g. In data set [2] (setting [4]), this compound yielded a Stomach uptake of 0.12 ± 0.05 %ID/g, a Testes uptake of 0.36 ± 0.14 %ID/g, a Thyroid uptake of 0.21 ± 0.06 %ID/g and a Tumor uptake of 0.74 ± 0.12 %ID/g. Moreover, in data set [2] (setting [4]), the “Tumor:Blood uptake ratio” value is 0.89 ± 0.19, the “Tumor:Kidney uptake ratio” value worked out at 0.43 ± 0.05, the “Tumor:Muscle uptake ratio” value is listed as 5.50 ± 2.68 and the “Tumor:Salivary gland uptake ratio” value came out at 5.05 ± 0.77. Also, the “Kidney uptake in PET images” value in data set [3] is reported as “moderate”.
For `O=C([O-])CN1CCN(CC(=O)[O-])CCN(CC(=O)NCC2CCC(C(=O)NC(Cc3c4ccccc4cc4ccccc34)C(=O)NCCCCC(NC(=O)NC(CSCC(=O)O)C(=O)O)C(=O)O)CC2)CCN(CC(=O)[O-])CC1.[Ga+3]` (stereo not drawn) [Ga-HTK03177], the Ki in data set [1] turned out to be 5 ± 2.4 nM.
For the compound `O=C([O-])CN1CCN(CC(=O)[O-])CCN(CC(=O)NCC2CCC(C(=O)NC(Cc3c4ccccc4cc4ccccc34)C(=O)NCCCCC(NC(=O)NC(COCC(=O)O)C(=O)O)C(=O)O)CC2)CCN(CC(=O)[O-])CC1.[68Ga+3]` (stereo not drawn) [[^68Ga]Ga-HTK03187], in data set [2], the Adrenal glands uptake is on record as 0.26 ± 0.06 %ID/g, the Blood uptake is 0.67 ± 0.10 %ID/g, the “Blood:Salivary gland uptake ratio” value is 4.27 ± 0.74 and the Bone uptake is on record as 0.13 ± 0.03 %ID/g. In data set [2], this compound displayed a Brain uptake of 0.02 ± 0.00 %ID/g, a Fat uptake of 0.07 ± 0.02 %ID/g, a Heart uptake of 0.19 ± 0.04 %ID/g and an Intestines uptake of 0.23 ± 0.05 %ID/g. In data set [2], this compound registered a Lacrimal glands uptake of 0.09 ± 0.03 %ID/g, a Liver uptake of 0.21 ± 0.05 %ID/g, a Lungs uptake of 0.52 ± 0.09 %ID/g and a Muscle uptake of 0.09 ± 0.01 %ID/g. Besides, in data set [2], the Pancreas uptake stood at 0.12 ± 0.02 %ID/g; the Salivary glands uptake is 0.16±0.02 %ID/g and < 0.25 %ID/g; the Spleen uptake was 0.17 ± 0.02 %ID/g; the Stomach uptake turned out to be 0.08 ± 0.05 %ID/g. In addition, in data set [2], the Testes uptake is reported as 0.15 ± 0.03 %ID/g; the Thyroid uptake is recorded as 0.18 ± 0.02 %ID/g; the Tumor uptake was 21.1±3.62 %ID/g and 21-25 %ID/g; the “Tumor:Blood uptake ratio” value is reported as 32.2±8.53. In data set [2], the “Tumor:Kidney uptake ratio” value is listed as 7.67±2.10, the “Tumor:Muscle uptake ratio” value is 249±61.2, the “Tumor:Salivary gland uptake ratio” value is given as 133±14.0 and the “Reduction of average kidney uptake by co-injection of DCFPyL” value is reported as 59%. Also, in data set [2] (setting [4]), the Adrenal glands uptake came out at 0.13 ± 0.06 %ID/g, the Blood uptake was 0.33 ± 0.16 %ID/g, the “Blood:Salivary gland uptake ratio” value was 3.64 ± 0.44 and the Bone uptake worked out at 0.06 ± 0.02 %ID/g. In data set [2] (setting [4]), this compound came in with a Brain uptake of 0.01 ± 0.00 %ID/g, a Fat uptake of 0.06 ± 0.04 %ID/g, a Heart uptake of 0.10 ± 0.05 %ID/g and an Intestines uptake of 0.13 ± 0.03 %ID/g. In data set [2] (setting [4]), this compound showed a Kidneys uptake of 1.15 ± 0.37 %ID/g, a Lacrimal glands uptake of 0.06 ± 0.03 %ID/g, a Liver uptake of 0.16 ± 0.05 %ID/g and a Lungs uptake of 0.31 ± 0.10 %ID/g. For the same compound, in data set [2] (setting [4]), the Muscle uptake is reported as 0.08 ± 0.06 %ID/g, the Pancreas uptake was determined as 0.07 ± 0.02 %ID/g, the Salivary glands uptake was found to be 0.09 ± 0.04 %ID/g and the Spleen uptake came out at 0.12 ± 0.03 %ID/g. Further, in data set [2] (setting [4]), the Stomach uptake is recorded as 0.03 ± 0.01 %ID/g, the Testes uptake is listed as 0.15 ± 0.01 %ID/g, the Thyroid uptake was found to be 0.12 ± 0.05 %ID/g and the Tumor uptake came out at 0.35 ± 0.09 %ID/g. In data set [2] (setting [4]), the “Tumor:Blood uptake ratio” value came to 1.14 ± 0.25, the “Tumor:Kidney uptake ratio” value turned out to be 0.31 ± 0.08, the “Tumor:Muscle uptake ratio” value was 5.34 ± 2.25 and the “Tumor:Salivary gland uptake ratio” value came to 4.13 ± 0.92. Further, the Tumor uptake in data set [2] (listed as [^68Ga]HTK03187) was ~ 20 %ID/g. Further, the “Kidney uptake in PET images” value in data set [3] is “relatively lower”.
